The results in this text go back to PMC6614494, “Molecular and Biochemical Characterization of a Bimodular Xylanase From Marinifilaceae Bacterium Strain SPP2” (Frontiers in Microbiology, 2019).

The test deals with T1, XynSPP2 (Labilibaculum antarcticum, UniProt A0A1Y1CHM8).
T1 construct: gene ALGA_1465; residues 25-450, signal peptide (24 residues) removed, Fn3 + GH10 domains; 34-residue N-terminal pET-28a tag kept; E. coli BL21(DE3)
The test is described as follows: TLC of hydrolysis products. The class given is biochemical. The settings on record: 20 uM substrate, citrate-phosphate pH 6.5.

T1 sequence (A0A1Y1CHM8 entry or part of it): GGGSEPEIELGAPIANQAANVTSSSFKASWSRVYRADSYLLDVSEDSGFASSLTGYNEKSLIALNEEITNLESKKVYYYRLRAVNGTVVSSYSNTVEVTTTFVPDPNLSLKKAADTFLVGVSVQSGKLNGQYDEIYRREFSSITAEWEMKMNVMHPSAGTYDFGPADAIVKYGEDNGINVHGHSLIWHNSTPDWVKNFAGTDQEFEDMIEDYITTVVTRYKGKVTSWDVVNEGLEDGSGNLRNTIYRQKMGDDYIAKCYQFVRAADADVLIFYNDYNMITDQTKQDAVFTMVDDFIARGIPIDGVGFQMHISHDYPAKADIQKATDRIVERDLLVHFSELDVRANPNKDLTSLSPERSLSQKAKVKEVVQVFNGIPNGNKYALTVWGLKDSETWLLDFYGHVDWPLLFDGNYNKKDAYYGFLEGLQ

As for `OC1OC[C@@H](O[C@@H]2OC[C@@H](O[C@@H]3OC[C@@H](O[C@@H]4OC[C@@H](O[C@@H]5OC[C@@H](O)[C@H](O)[C@H]5O)[C@H](O)[C@H]4O)[C@H](O)[C@H]3O)[C@H](O)[C@H]2O)[C@H](O)[C@H]1O` (some centres unmarked) [X5, xylopentaose], the “TLC of hydrolysis products” value is “Degradations of xylopentaose and xylohexaose by XynSPP2 were largely similar”. For `OC1OC[C@@H](O[C@@H]2OC[C@@H](O[C@@H]3OC[C@@H](O[C@@H]4OC[C@@H](O)[C@H](O)[C@H]4O)[C@H](O)[C@H]3O)[C@H](O)[C@H]2O)[C@H](O)[C@H]1O` (some centres unmarked) [X4, xylotetraose], the “TLC of hydrolysis products” value was “XynSPP2 hydrolyzed xylotetraose to xylotriose (major) and xylobiose”.
